Source: patent US6156700A, “3-(1,2-Benzisothiazol- and isoxazol-5-yl)-2,4(1H,3H)-pyrimidinedione or thione and 3-(1,2-benzisothiazol- and isoxazol-5-yl)-4(3H)-pyrimidinone or thione herbicidal agents” (American Cyanmid Company, priority 1998, dated 2000)

Assays:
[1] = system: Velvetleaf, Abutilon theophrasti; test: Postemergence herbicidal evaluation, ABUTH; assay type: in vivo, Medic.; conditions: 0.2500 kg/ha
Summary of the method: (§1)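 Seedlings grown about two weeks were sprayed with compound in 50/50 acetone/water containing 0.5% TWEEN 20 at rates equivalent to about 0.0157–0.500 kg/ha, nozzle at 40 psi. Injury was rated visually 0–9 versus control four to five weeks after treatment; replicate tests averaged.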

[2] = system: Sicklepod, Cassia obtusifolia; test: Postemergence herbicidal evaluation, CASOB; assay type: in vivo, L.; conditions: 0.2500 kg/ha
Summary of the method: as §1

[3] = system: Morningglory Spp., Ipomoea Spp.; test: Postemergence herbicidal evaluation, IPOSS; assay type: in vivo; conditions: 0.2500 kg/ha
Summary of the method: as §1

[4] = system: Rice, Tebonnet, Oryza sativa; test: Postemergence herbicidal evaluation, ORYSAT; assay type: in vivo, (L.) Tebonnet; conditions: 0.2500 kg/ha
Summary of the method: as §1

[5] = system: Wheat, Winter, cv Riband, Triticum aestivum; test: Postemergence herbicidal evaluation, TRZAWR; assay type: in vivo; conditions: 0.2500 kg/ha
Summary of the method: as §1

Corn, Field, Zea mays [6] = test: Postemergence herbicidal evaluation, ZEAMX; assay type: in vivo, L.; conditions: 0.2500 kg/ha
Summary of the method: as §1

[7] = system: Ragweed, Common, Ambrosia artemisifolia; test: Preemergence herbicidal evaluation, AMBEL; assay type: in vivo, L.; conditions: 0.2500 kg/ha
Summary of the method: (§2)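 Seeds sown in potting soil in cups, then sprayed preemergence with compound in aqueous acetone at about 0.0156 to 0.500 kg per hectare. Greenhouse-grown; rated visually 4–5 weeks after treatment on a 0–9 scale (stand, vigor, malformation, size, chlorosis, appearance) versus untreated control.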

[8] = system: Sicklepod, Cassia obtusifolia; test: Preemergence herbicidal evaluation, CASOB; assay type: in vivo, L.; conditions: 0.2500 kg/ha
Summary of the method: as §2

[9] = system: Morningglory Spp., Ipomoea Spp.; test: Preemergence herbicidal evaluation, IPOSS; assay type: in vivo; conditions: 0.2500 kg/ha
Summary of the method: as §2

[10] = system: Barnyardgrass, Echinochloa crus-galli; test: Preemergence herbicidal evaluation, ECHCG; assay type: in vivo, (L.) Beau; conditions: 0.2500 kg/ha
Summary of the method: as §2

[11] = system: Foxtail, Green, Setaria viridis; test: Preemergence herbicidal evaluation, SETVI; assay type: in vivo, (L.) Beau; conditions: 0.2500 kg/ha
Summary of the method: as §2

[12] = system: Rice, Tebonnet, Oryza sativa; test: Preemergence herbicidal evaluation, ORYSAT; assay type: in vivo, (L.) Tebonnet; conditions: 0.2500 kg/ha
Summary of the method: as §2

[13] = system: Wheat, Winter, cv Riband, Triticum aestivum; test: Preemergence herbicidal evaluation, TRZAWR; assay type: in vivo; conditions: 0.2500 kg/ha
Summary of the method: as §2

Corn, Field, Zea mays [14] = test: Preemergence herbicidal evaluation, ZEAMX; assay type: in vivo, L.; conditions: 0.2500 kg/ha
Summary of the method: as §2

[15] = system: ECHORC Watergrass (Calif.); test: Preemergence weed control, flooded paddy (Table III); assay type: in vivo, Echinochloa oryzoides; design: scale not given here
Summary of the method: (§3)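 Seeds or propagules sown in silt loam under 1.5 to 3 cm standing flood water; compound in 50/50 aqueous/acetone pipetted into the water at about 0.0313 to 0.500 kg/ha active ingredient. Greenhouse-held; herbicidal effect rated on a scale 3-4 weeks after treatment.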

CYPIR Rice Flatsedge = test: as above; assay type: in vivo, Cyperus iria; design: scale not given here
Summary of the method: as §3

CYPSE Flatsedge [16] = test: as above; assay type: in vivo, Cyperus serotinus; design: scale not given here
Summary of the method: as §3

MOOVA Monochoria [17] = test: as above; assay type: in vivo, Monochoria vaginalis; design: scale not given here
Summary of the method: as §3

[18] = system: SAGPY Arrowhead (Pygmaea); test: as above; assay type: in vivo, Sagittaria pygmaea; design: scale not given here
Summary of the method: as §3

CYPSE Flatsedge [19] = test: Postemergence weed control, flooded paddy (Table IV); assay type: in vivo, Cyperus serotinus; design: scale not given here
Summary of the method: (§4)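 Flooded greenhouse pots; water 1.5–3 cm over soil throughout. Weeds 3–5 cm, rice 1.5–2.5 leaf. Dose ~0.0313–0.500 kg/ha a.i., aqueous/acetone 50/50 v/v into flood water. Visual herbicidal rating at 3–4 wk.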

MOOVA Monochoria [20] = test: as above; assay type: in vivo, Monochoria vaginalis; design: scale not given here
Summary of the method: as §4

Cc1cc(O)c(-c2nsc3ccc(-n4c(=O)cc(C(F)(F)F)n(C)c4=O)cc23)cc1C [Compound 11, 3-[3-(6-Hydroxy-3,4-xylyl)-1,2-benzisothiazol-5-yl]-1-methyl-6-(trifluoromethyl)-2,4(1H,3H)-pyrimidinedione]
herbicide rating (0-9) [1]: 9.0 | herbicide rating (0-9) [2]: 7.0 | herbicide rating (0-9) [3]: 9.0 | herbicide rating (0-9) [4]: 2.0 | herbicide rating (0-9) [5]: 5.0 | herbicide rating (0-9) (Corn, Field, Zea mays [6]): 5.5 | herbicide rating (0-9) [7]: 9.0 | herbicide rating (0-9) [8]: 3.0 | herbicide rating (0-9) [9]: 5.0 | herbicide rating (0-9) [10]: 0.0 | herbicide rating (0-9) [11]: 9.0 | herbicide rating (0-9) [12]: 0.0 | herbicide rating (0-9) [13]: 4.0 | herbicide rating (0-9) (Corn, Field, Zea mays [14]): 5.0 | herbicidal effect rating ([15]; 0.0625 kg/ha): 7.0 | herbicidal effect rating ([15]; 0.1250 kg/ha): 8.0 | herbicidal effect rating ([15]; 0.2500 kg/ha): 8.0 | herbicidal effect rating ([15]; 0.5000 kg/ha): 9.0 | herbicidal effect rating (CYPIR Rice Flatsedge; 0.0625 kg/ha): 9.0 | herbicidal effect rating (CYPIR Rice Flatsedge; 0.1250 kg/ha): 9.0 | herbicidal effect rating (CYPIR Rice Flatsedge; 0.2500 kg/ha): 9.0 | herbicidal effect rating (CYPIR Rice Flatsedge; 0.5000 kg/ha): 9.0 | herbicidal effect rating (CYPSE Flatsedge [16]; 0.0625 kg/ha): 2.0 | herbicidal effect rating (CYPSE Flatsedge [16]; 0.1250 kg/ha): 2.0 | herbicidal effect rating (CYPSE Flatsedge [16]; 0.2500 kg/ha): 2.0 | herbicidal effect rating (CYPSE Flatsedge [16]; 0.5000 kg/ha): 7.0 | herbicidal effect rating (MOOVA Monochoria [17]; 0.0625 kg/ha): 9.0 | herbicidal effect rating (MOOVA Monochoria [17]; 0.1250 kg/ha): 9.0 | herbicidal effect rating (MOOVA Monochoria [17]; 0.2500 kg/ha): 9.0 | herbicidal effect rating (MOOVA Monochoria [17]; 0.5000 kg/ha): 9.0 | herbicidal effect rating ([18]; 0.0625 kg/ha): 0.0 | herbicidal effect rating ([18]; 0.1250 kg/ha): 0.0 | herbicidal effect rating ([18]; 0.2500 kg/ha): 2.0 | herbicidal effect rating ([18]; 0.5000 kg/ha): 9.0 | herbicidal effect rating (CYPSE Flatsedge [19]; 0.1250 kg/ha): 0.0 | herbicidal effect rating (CYPSE Flatsedge [19]; 0.2500 kg/ha): 0.0 | herbicidal effect rating (CYPSE Flatsedge [19]; 0.5000 kg/ha): 0.0 | herbicidal effect rating (MOOVA Monochoria [20]; 0.1250 kg/ha): 9.0 | herbicidal effect rating (MOOVA Monochoria [20]; 0.2500 kg/ha): 9.0 | herbicidal effect rating (MOOVA Monochoria [20]; 0.5000 kg/ha): 9.0

COC(=O)COc1cc(C)c(C)cc1-c1nsc2ccc(-n3c(=O)cc(C(F)(F)F)n(C)c3=O)cc12 [Compound 12, Methyl {{6-{5-[3,6-dihydro-3-methyl-4-(trifluoromethyl)-2,6-dioxo-1(2H)-pyrimidinyl]-1,2-benzisothiazol-3-yl}-3,4-xylyl}oxy}acetate]
herbicide rating (0-9) [1]: 9.0 | herbicide rating (0-9) [2]: 9.0 | herbicide rating (0-9) [3]: 9.0 | herbicide rating (0-9) [4]: 9.0 | herbicide rating (0-9) [5]: 9.0 | herbicide rating (0-9) (Corn, Field, Zea mays [6]): 9.0 | herbicide rating (0-9) [7]: 9.0 | herbicide rating (0-9) [8]: 9.0 | herbicide rating (0-9) [9]: 9.0 | herbicide rating (0-9) [10]: 6.0 | herbicide rating (0-9) [11]: 9.0 | herbicide rating (0-9) [12]: 7.0 | herbicide rating (0-9) [13]: 5.0 | herbicide rating (0-9) (Corn, Field, Zea mays [14]): 7.0 | herbicidal effect rating ([15]; 0.0313 kg/ha): 9.0 | herbicidal effect rating ([15]; 0.0625 kg/ha): 9.0 | herbicidal effect rating ([15]; 0.1250 kg/ha): 9.0 | herbicidal effect rating ([15]; 0.2500 kg/ha): 9.0 | herbicidal effect rating ([15]; 0.5000 kg/ha): 9.0 | herbicidal effect rating (CYPIR Rice Flatsedge; 0.0313 kg/ha): 9.0 | herbicidal effect rating (CYPIR Rice Flatsedge; 0.0625 kg/ha): 9.0 | herbicidal effect rating (CYPIR Rice Flatsedge; 0.1250 kg/ha): 9.0 | herbicidal effect rating (CYPIR Rice Flatsedge; 0.2500 kg/ha): 9.0 | herbicidal effect rating (CYPIR Rice Flatsedge; 0.5000 kg/ha): 9.0 | herbicidal effect rating (CYPSE Flatsedge [16]; 0.0313 kg/ha): 6.0 | herbicidal effect rating (CYPSE Flatsedge [16]; 0.0625 kg/ha): 7.0 | herbicidal effect rating (CYPSE Flatsedge [16]; 0.1250 kg/ha): 8.0 | herbicidal effect rating (CYPSE Flatsedge [16]; 0.2500 kg/ha): 7.0 | herbicidal effect rating (CYPSE Flatsedge [16]; 0.5000 kg/ha): 7.0 | herbicidal effect rating (MOOVA Monochoria [17]; 0.0313 kg/ha): 9.0 | herbicidal effect rating (MOOVA Monochoria [17]; 0.0625 kg/ha): 9.0 | herbicidal effect rating (MOOVA Monochoria [17]; 0.1250 kg/ha): 9.0 | herbicidal effect rating (MOOVA Monochoria [17]; 0.2500 kg/ha): 9.0 | herbicidal effect rating (MOOVA Monochoria [17]; 0.5000 kg/ha): 9.0 | herbicidal effect rating ([18]; 0.0313 kg/ha): 0.0 | herbicidal effect rating ([18]; 0.0625 kg/ha): 2.0 | herbicidal effect rating ([18]; 0.1250 kg/ha): 4.0 | herbicidal effect rating ([18]; 0.2500 kg/ha): 9.0 | herbicidal effect rating ([18]; 0.5000 kg/ha): 9.0 | herbicidal effect rating (CYPSE Flatsedge [19]; 0.5000 kg/ha): 2.0 | herbicidal effect rating (MOOVA Monochoria [20]; 0.1250 kg/ha): 9.0 | herbicidal effect rating (MOOVA Monochoria [20]; 0.2500 kg/ha): 9.0 | herbicidal effect rating (MOOVA Monochoria [20]; 0.5000 kg/ha): 9.0

COC(=O)C(C)Oc1cc(C)c(C)cc1-c1nsc2ccc(-n3c(=O)cc(C(F)(F)F)n(C)c3=O)cc12 (centres unmarked) [Compound 13, Methyl 2-{{6-{5-[3,6-dihydro-3-methyl-4-(trifluoromethyl)-2,6-dioxo-1(2H)-pyrimidinyl]-1,2-benzisothiazol-3-yl}-3,4-xylyl}oxy}propionate]
herbicide rating (0-9) [1]: 9.0 | herbicide rating (0-9) [2]: 9.0 | herbicide rating (0-9) [3]: 9.0 | herbicide rating (0-9) [4]: 8.0 | herbicide rating (0-9) [5]: 8.5 | herbicide rating (0-9) (Corn, Field, Zea mays [6]): 9.0 | herbicide rating (0-9) [7]: 9.0 | herbicide rating (0-9) [8]: 9.0 | herbicide rating (0-9) [9]: 9.0 | herbicide rating (0-9) [10]: 9.0 | herbicide rating (0-9) [11]: 9.0 | herbicide rating (0-9) [12]: 6.0 | herbicide rating (0-9) [13]: 4.0 | herbicide rating (0-9) (Corn, Field, Zea mays [14]): 4.0 | herbicidal effect rating ([15]; 0.0313 kg/ha): 9.0 | herbicidal effect rating ([15]; 0.0625 kg/ha): 9.0 | herbicidal effect rating ([15]; 0.1250 kg/ha): 9.0 | herbicidal effect rating ([15]; 0.2500 kg/ha): 9.0 | herbicidal effect rating ([15]; 0.5000 kg/ha): 9.0 | herbicidal effect rating (CYPIR Rice Flatsedge; 0.0313 kg/ha): 9.0 | herbicidal effect rating (CYPIR Rice Flatsedge; 0.0625 kg/ha): 9.0 | herbicidal effect rating (CYPIR Rice Flatsedge; 0.1250 kg/ha): 9.0 | herbicidal effect rating (CYPIR Rice Flatsedge; 0.2500 kg/ha): 9.0 | herbicidal effect rating (CYPIR Rice Flatsedge; 0.5000 kg/ha): 9.0 | herbicidal effect rating (CYPSE Flatsedge [16]; 0.0313 kg/ha): 0.0 | herbicidal effect rating (CYPSE Flatsedge [16]; 0.0625 kg/ha): 2.0 | herbicidal effect rating (CYPSE Flatsedge [16]; 0.1250 kg/ha): 7.0 | herbicidal effect rating (CYPSE Flatsedge [16]; 0.2500 kg/ha): 7.0 | herbicidal effect rating (CYPSE Flatsedge [16]; 0.5000 kg/ha): 7.0 | herbicidal effect rating (MOOVA Monochoria [17]; 0.0313 kg/ha): 9.0 | herbicidal effect rating (MOOVA Monochoria [17]; 0.0625 kg/ha): 9.0 | herbicidal effect rating (MOOVA Monochoria [17]; 0.1250 kg/ha): 9.0 | herbicidal effect rating (MOOVA Monochoria [17]; 0.2500 kg/ha): 9.0 | herbicidal effect rating (MOOVA Monochoria [17]; 0.5000 kg/ha): 9.0 | herbicidal effect rating ([18]; 0.0313 kg/ha): 0.0 | herbicidal effect rating ([18]; 0.0625 kg/ha): 2.0 | herbicidal effect rating ([18]; 0.1250 kg/ha): 6.0 | herbicidal effect rating ([18]; 0.2500 kg/ha): 8.0 | herbicidal effect rating ([18]; 0.5000 kg/ha): 9.0 | herbicidal effect rating (CYPSE Flatsedge [19]; 0.1250 kg/ha): 2.0 | herbicidal effect rating (CYPSE Flatsedge [19]; 0.2500 kg/ha): 4.0 | herbicidal effect rating (CYPSE Flatsedge [19]; 0.5000 kg/ha): 2.0 | herbicidal effect rating (MOOVA Monochoria [20]; 0.1250 kg/ha): 9.0 | herbicidal effect rating (MOOVA Monochoria [20]; 0.2500 kg/ha): 9.0 | herbicidal effect rating (MOOVA Monochoria [20]; 0.5000 kg/ha): 9.0
